Results: ChEMBL document CHEMBL1201862, “PubChem BioAssay data set” (2004)
Active and inactive are the calls of the source.

What was measured:
[1] = test system: Streptococcus; test: Group A Streptococcus viability loss, dose response, counter-screen for streptokinase expression inhibitor project, luminescence, BacTiterGlo (AID 1915); assay type: functional, organism-based;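 note: potency for reduction of bacterial viability or growth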
[2] = molecular target: T1, Sentrin-specific protease 1 (Homo sapiens, UniProt Q9P0U3); test: potency of human SENP1 inhibitors, dose response, biochemical, kinetic FRET (AID 651697); assay type: functional; conditions: read-out: IC50_Mean
T1 sequence (Q9P0U3 whole entry): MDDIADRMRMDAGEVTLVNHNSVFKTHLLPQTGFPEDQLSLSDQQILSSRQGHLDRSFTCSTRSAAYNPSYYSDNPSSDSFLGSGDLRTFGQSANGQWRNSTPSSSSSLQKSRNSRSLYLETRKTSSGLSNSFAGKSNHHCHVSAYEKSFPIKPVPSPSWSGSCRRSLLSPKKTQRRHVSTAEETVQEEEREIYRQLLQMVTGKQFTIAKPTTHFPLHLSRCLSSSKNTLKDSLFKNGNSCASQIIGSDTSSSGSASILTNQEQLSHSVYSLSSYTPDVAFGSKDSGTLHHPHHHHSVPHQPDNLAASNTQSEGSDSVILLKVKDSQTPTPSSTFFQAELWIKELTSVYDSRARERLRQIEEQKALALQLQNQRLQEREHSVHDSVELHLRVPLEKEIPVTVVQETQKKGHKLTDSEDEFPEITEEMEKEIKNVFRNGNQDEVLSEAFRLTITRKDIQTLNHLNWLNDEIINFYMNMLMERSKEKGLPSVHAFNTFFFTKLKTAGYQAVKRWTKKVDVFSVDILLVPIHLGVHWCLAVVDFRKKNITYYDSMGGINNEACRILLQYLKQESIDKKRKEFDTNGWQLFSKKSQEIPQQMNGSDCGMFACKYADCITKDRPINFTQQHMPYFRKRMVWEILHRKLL

[3] = molecular target: T2, Streptokinase A (Streptococcus pyogenes serotype M1, UniProt P10520); test: S. pyogenes streptokinase expression inhibitors, potency, dose response, plasminogen activation absorbance, OD405 (AID 1914); assay type: functional, Streptococcus pyogenes M1 GAS;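 note: secreted streptokinase activity via plasminogen activation per viability signal from cell pellet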
T2 sequence (P10520 whole entry): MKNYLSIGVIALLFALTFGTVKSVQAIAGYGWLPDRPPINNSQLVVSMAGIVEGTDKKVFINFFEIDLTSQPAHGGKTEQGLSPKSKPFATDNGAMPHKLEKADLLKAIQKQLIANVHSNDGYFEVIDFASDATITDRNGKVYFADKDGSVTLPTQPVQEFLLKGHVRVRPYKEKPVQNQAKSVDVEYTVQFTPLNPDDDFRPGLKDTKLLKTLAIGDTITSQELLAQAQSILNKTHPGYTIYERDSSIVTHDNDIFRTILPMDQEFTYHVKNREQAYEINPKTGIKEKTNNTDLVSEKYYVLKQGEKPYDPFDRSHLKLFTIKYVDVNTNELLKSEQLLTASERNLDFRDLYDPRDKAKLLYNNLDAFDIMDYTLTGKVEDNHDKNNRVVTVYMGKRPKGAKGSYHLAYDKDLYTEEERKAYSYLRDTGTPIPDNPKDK

[4] = test system: Streptococcus sp. 'group A'; test: growth inhibition of control SK(-) GAS strain, dose response, counter-screen for streptokinase expression inhibitor project, luminescence, kanamycin, BacTiterGlo, confirmation (AID 1900); assay type: functional, organism-based
[5] = molecular target: T1, Sentrin-specific protease 1; test: Dose response confirmation of small molecule inhibitors of the catalytic domain of the SUMO protease, SENP1 in a FRET assay.; assay type: functional; conditions: read-out: IC50_Mean
[6] = molecular target: T3, Small ubiquitin-related modifier 1 (Homo sapiens, UniProt P63165); test: inhibitors of SUMO1 partner interactions, dose response, biochemical, FRET (AID 624383); assay type: functional; conditions: read-out: IC50_Mean
[7] = molecular target: T3, Small ubiquitin-related modifier 1; test: inhibitors of SUMO1 peptide binding, dose response, biochemical, fluorescence polarization, uHTS hits (AID 624382); assay type: functional; conditions: read-out: IC50_Mean
[8] = molecular target: T4, Neuropeptides B/W receptor type 1 (Homo sapiens, UniProt P48145); test: GPR7 antagonist potency, late-stage follow-up, cell-based, fluorescence, dose response, set 6 (AID 588583); assay type: functional
T4 sequence (P48145 whole entry): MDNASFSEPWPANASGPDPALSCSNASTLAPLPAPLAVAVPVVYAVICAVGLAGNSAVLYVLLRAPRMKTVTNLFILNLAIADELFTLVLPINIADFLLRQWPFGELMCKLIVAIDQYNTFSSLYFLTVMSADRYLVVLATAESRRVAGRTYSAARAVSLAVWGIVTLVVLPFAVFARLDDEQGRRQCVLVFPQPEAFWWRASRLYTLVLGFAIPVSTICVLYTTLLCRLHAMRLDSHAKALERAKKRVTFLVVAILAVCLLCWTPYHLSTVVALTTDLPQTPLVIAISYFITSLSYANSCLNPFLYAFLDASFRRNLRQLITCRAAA

[9] = molecular target: Melanin-concentrating hormone receptor 1 (Homo sapiens, UniProt Q99705); test: Late-stage fluorescence-based counterscreen for antagonists of the G-protein coupled receptor 7 (GPR7): cell-based dose response assay to identify antagonists of the melanin-concentrating hormone receptor 1 (MCHR1) Set 6.; assay type: functional
[10] = molecular target: Nonstructural protein 1 (Influenza A virus, UniProt Q194T2); assay type: functional, Influenza A virus (A/California/07/2009(H1N1))
[11] = molecular target: Melanocortin receptor 4 (Homo sapiens, UniProt P32245); test: MC4R antagonist potency on cAMP, dose response, cell-based, TR-FRET, biased antagonists (AID 602298); assay type: functional;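 note: antagonist potency against agonist-stimulated cAMP production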
[12] = nonselective inhibitors of cellular cAMP signaling, dose response, counter-screen for MC4R biased antagonist project, cell-based, TR-FRET cAMP detection (AID 602305); assay type: functional;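 note: U2OS cells stimulated with forskolin near its EC80 as the cAMP inducer; potency is for inhibition of forskolin-stimulated cAMP signaling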
[13] = test system: P388; test: cells; assay type: functional; conditions: Mus musculus
[14] = test system: P388/ADR; test: cells; assay type: functional; conditions: Mus musculus
[15] = test system: SN12K1; test: cells; assay type: functional; conditions: Homo sapiens
[16] = Luminescence Cell-Based Dose Confirmation HTS to Identify Inhibitors of Platelet Dense Granule Release. [Related pubchem assays: 1663 (Primary HTS), 1678 (Summary of Project)]; assay type: functional
[17] = molecular target: Luciferin 4-monooxygenase (Photinus pyralis, UniProt P08659); test: firefly luciferase enzyme inhibitors, dose response, biochemical, luminescence (AID 1891)
[18] = test system: HeLa; test: HeLa cell cytotoxicity, dose response, cytotoxicity control for MITF activator project, CellTiter-Glo luminescence, cherry-pick samples (AID 540259); assay type: functional, cell-based; conditions: Homo sapiens
[19] = Vero E6 cell cytotoxicity, dose response, cytotoxicity control for non-replicating M. tuberculosis project, secondary assay (AID 492998); assay type: functional, VeroE6; conditions: Vero C1008
[20] = cells; assay type: functional
[21] = molecular target: Tumor necrosis factor (Homo sapiens, UniProt P01375); test: TNFa-triggered NF-kB activation inhibitors, SAR follow-up, cell-based, revised (AID 2337); assay type: functional
[22] = test system: HEK293; test: cells; conditions: Homo sapiens
[23] = test system: HEK293; test: inhibitors of LMP1-driven NF-kB reporter, dose response, cell-based, HEK293, luciferase, cherry-pick (AID 588343); assay type: functional; conditions: Homo sapiens
[24] = DNA binding of candidate compounds, dose response, artefact control for RAD54 inhibitor project, biochemical, fluorescence polarization, cherry-pick (AID 651673); assay type: functional
[25] = molecular target: T5, Heat shock factor protein 1 (Mus musculus, UniProt P38532); test: inhibition of MG132-induced HSE-luciferase signal, confirmation, cell-based, NIH3T3, luminescence, dose retest (AID 2382); assay type: functional;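 note: NIH3T3 fibroblasts with HSF1-driven luciferase reporter stressed by proteasome inhibitor MG132; luminescence from HSF1-driven luciferase expression after 8 hours of MG132 stress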
T5 sequence (P38532 whole entry): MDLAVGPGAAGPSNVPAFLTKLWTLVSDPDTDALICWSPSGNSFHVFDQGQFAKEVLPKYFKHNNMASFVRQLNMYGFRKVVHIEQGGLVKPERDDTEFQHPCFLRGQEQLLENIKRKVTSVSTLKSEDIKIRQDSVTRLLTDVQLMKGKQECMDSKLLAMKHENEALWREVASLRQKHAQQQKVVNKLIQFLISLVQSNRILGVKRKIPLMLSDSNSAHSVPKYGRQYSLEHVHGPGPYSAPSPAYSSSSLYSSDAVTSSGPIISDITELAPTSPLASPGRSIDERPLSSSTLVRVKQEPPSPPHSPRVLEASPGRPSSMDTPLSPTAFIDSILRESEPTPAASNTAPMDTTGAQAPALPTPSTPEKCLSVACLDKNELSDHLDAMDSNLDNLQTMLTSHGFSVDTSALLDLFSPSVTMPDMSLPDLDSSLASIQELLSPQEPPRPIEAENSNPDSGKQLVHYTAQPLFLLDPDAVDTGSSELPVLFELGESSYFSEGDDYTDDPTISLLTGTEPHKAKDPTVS

Chain of Melanocortin receptor 4 (P32245 whole entry): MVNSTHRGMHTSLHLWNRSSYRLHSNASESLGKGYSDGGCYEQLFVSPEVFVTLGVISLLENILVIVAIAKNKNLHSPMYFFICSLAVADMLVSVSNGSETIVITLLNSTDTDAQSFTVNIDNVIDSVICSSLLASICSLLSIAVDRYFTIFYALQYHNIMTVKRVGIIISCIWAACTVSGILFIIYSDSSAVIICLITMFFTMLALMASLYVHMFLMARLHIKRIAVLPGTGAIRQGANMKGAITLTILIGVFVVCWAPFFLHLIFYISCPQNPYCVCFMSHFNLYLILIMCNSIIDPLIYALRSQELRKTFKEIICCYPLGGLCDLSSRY
Chain of Melanin-concentrating hormone receptor 1 (Q99705 whole entry): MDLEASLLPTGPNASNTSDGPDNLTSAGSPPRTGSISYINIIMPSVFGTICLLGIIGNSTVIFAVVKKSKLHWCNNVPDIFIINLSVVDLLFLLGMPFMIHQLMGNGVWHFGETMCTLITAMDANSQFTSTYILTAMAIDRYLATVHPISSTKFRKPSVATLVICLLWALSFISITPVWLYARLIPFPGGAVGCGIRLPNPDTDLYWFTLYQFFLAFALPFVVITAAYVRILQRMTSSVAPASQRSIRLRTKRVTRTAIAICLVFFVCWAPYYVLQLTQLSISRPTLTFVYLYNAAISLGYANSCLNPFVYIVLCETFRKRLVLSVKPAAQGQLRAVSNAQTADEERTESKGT
T3 sequence (P63165 whole entry): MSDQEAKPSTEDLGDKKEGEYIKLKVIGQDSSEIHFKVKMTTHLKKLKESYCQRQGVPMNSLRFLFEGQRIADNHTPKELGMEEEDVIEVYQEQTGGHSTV
Chain of Tumor necrosis factor (P01375 whole entry): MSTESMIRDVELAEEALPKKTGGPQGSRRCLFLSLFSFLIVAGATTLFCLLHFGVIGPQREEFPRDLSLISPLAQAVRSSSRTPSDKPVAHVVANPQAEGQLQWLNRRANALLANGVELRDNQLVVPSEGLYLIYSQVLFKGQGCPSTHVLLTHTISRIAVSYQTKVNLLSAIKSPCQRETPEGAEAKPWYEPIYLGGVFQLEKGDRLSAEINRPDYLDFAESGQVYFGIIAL
Chain of Nonstructural protein 1 (Q194T2 whole entry): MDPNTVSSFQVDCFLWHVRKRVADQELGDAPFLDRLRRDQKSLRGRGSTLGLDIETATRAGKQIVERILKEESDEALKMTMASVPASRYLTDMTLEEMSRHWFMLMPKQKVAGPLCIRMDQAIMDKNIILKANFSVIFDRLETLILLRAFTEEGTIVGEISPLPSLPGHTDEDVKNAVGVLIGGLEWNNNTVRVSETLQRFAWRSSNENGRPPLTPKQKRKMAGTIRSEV
Chain of Luciferin 4-monooxygenase (P08659 whole entry): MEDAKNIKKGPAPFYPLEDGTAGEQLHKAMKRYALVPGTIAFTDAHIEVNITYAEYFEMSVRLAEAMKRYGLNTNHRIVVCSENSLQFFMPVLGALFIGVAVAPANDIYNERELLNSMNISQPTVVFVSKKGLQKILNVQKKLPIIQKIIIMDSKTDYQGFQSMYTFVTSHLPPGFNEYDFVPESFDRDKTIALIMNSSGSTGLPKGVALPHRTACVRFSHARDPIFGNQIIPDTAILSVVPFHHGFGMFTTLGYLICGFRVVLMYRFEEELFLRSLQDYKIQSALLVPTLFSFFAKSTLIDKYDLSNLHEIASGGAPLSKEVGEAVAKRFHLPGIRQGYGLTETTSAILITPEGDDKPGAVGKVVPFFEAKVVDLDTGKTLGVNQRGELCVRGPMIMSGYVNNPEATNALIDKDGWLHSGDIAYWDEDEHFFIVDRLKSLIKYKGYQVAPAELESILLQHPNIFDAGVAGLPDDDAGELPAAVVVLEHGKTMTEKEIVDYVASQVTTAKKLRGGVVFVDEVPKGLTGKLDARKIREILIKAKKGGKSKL

## COC(=O)c1c(NC(=O)c2ccccc2)sc(C(=O)c2ccccc2)c1C
[1]
  EC50: 18.4 µM (active)
[2]
  IC50: 15.6 µM (active)
[3]
  EC50: > 150 µM (not active)
[4]
  EC50: 6.12 µM (active)
[5]
  IC50: 21.3 µM (inactive)

## CCCCCCC(=O)Nc1nc(C)c(-c2csc(Nc3cc(Cl)ccc3C)n2)s1
[6]
  IC50: 10.1 µM (active)
[7]
  IC50: > 66.6 µM (inactive)

## O=c1c(-c2ccc(F)c(F)c2)c(Br)cnn1Cc1cccc2ccccc12
[8]
  IC50: 0.686 µM (active)
[9]
  IC50: 0.686 µM (active)

## Cc1cccn2c(=O)c(C=C(C#N)C#N)c(N3CCN(c4ccccc4)CC3)nc12
[10]
  IC50: > 100 µM (active)

## Cc1ccc(-n2cccc2/C=C2\C(=N)N3N=C(C(C)C)SC3=NC2=O)cc1
[11]
  IC50: > 64.6 µM (inactive)
[12]
  IC50: > 64.6 µM (inactive)

## CC(C)(C)c1ccc2c(c1)OP1(Oc3cccc4cccnc34)(O2)Oc2ccc(C(C)(C)C)cc2O1
[13]
  GI50: 0.689 µM (active)
[14]
  GI50: 1.02 µM (active)
[15]
  GI50: 4.24 µM (inactive)

## CSc1nc(NC2OCC(O)C(O)C2O)c(N)c(=O)n1C (stereo not given)
[13]
  GI50: > 100 µM (inactive)
[14]
  GI50: > 100 µM (inactive)
[15]
  GI50: > 100 µM (inactive)

## Cc1ccc(N(C)/N=C/c2ccc(Cl)cc2Cl)nn1
[16]
  EC50: > 112 µM (not active)
[17]
  EC50: > 112 µM (not active)
[18]
  AC50: 75.3 µM (active)

## C=C1C(O)C2(O)OCC34C(CC5C(C)=CC(=O)C(O)C5(C)C23)OC(=O)C(OC(=O)C/C=C/CCCCCCCC)C14 (stereo not given)
[13]
  GI50: 0.02 µM (active)
[14]
  GI50: 0.0611 µM (active)
[15]
  GI50: 0.02 µM (active)

## O=C(CNC(=O)c1ccc(Oc2ccccc2)cc1)OC1CCCCC1=O (stereo not given)
[11]
  IC50: > 64.6 µM (inactive)
[12]
  IC50: > 64.6 µM (inactive)

## COc1ccc(Oc2c(Cl)cnn(Cc3ccccc3[N+](=O)[O-])c2=O)cc1
[8]
  IC50: 1.41 µM (active)
[9]
  IC50: 1.41 µM (active)

## COc1ccc(OC)c(NC(=O)CCN2C(=O)c3cccc([N+](=O)[O-])c3C2=O)c1
[11]
  IC50: > 64.6 µM (inactive)
[12]
  IC50: > 64.6 µM (inactive)

## Cc1ccc(C(=O)Nc2ncccc2S(=O)(=O)c2ccccc2)cc1
[18]
  AC50: > 350 µM (inactive)

## O=C(NCCc1cccs1)c1ccc(Cl)c(Cl)c1
[18]
  AC50: 44.2 µM (active)

## O=C(Nc1nnc(-c2ccco2)o1)c1cccc2ccccc12
[19]
  CC50: > 20 µM (active)
[20]
  IC50: 4.54 µM (active)

## N#Cc1ccc(N2CCN(S(=O)(=O)c3ccc4c(c3)CCN4C(=O)C3CC3)CC2)cc1
[21]
  IC50: 13.3 µM (active)
[22]
  IC50: > 20 µM (inactive)

## CCc1ccc(/C=C2\SC(=S)N(CCCC(=O)NC3=NCCS3)C2=O)cc1
[23]
  AC50: 1.85 µM (active)

## O=C(NC(Cc1ccc(I)cc1)C(=O)O)c1cccc(Br)c1 (stereo not given)
[13]
  GI50: 47.6 µM (inactive)
[14]
  GI50: 55.2 µM (inactive)
[15]
  GI50: > 100 µM (inactive)

## Cc1nc2oc3c(O)ncnc3c2c2c1COC(C)(C)C2
[24]
  AC50: 67.1 µM (active)

## CC(C)(C#N)c1c(Cl)cnn(Cc2cccc3ccccc23)c1=O
[8]
  IC50: 2.5 µM (active)
[9]
  IC50: 2.5 µM (active)

## COc1cccc(C(=O)Nc2sc(C(C)C)cc2C(N)=O)c1OC
[25]
  EC50: > 195 µM (not active)
[11]
  IC50: > 64.6 µM (inactive)
[12]
  IC50: > 64.6 µM (inactive)

## COc1ccc(C(C#N)c2c(Cl)cnn(Cc3cccc4ccccc34)c2=O)c(F)c1 (stereo not given)
[8]
  IC50: 0.198 µM (active)
[9]
  IC50: 0.198 µM (active)

## Cc1c(C#N)c(O)nc(O)c1N=Nc1ccc(Br)cc1C(=O)O
[2]
  IC50: 18.1 µM (active)
[5]
  IC50: 10.6 µM (active)
